Tests used:
[1] = system: KB/VJ 300 cells; test: Degree of resistance to ADM (ratio of ADM LD50 concentrations) in multi-drug resistant KB/VJ 300 cells on combined administration of doxorubicin and test compound; assay type: cell-based, human; settings: VJ-300 (resistant) cells; ADM + test compound 1 μg/ml; relative to ADM alone in KB = 1
Protocol: In Vitro Test of Action Suppressing Proliferation of Cancer Cells combined administration of Doxorubicin
(§1) Human rhinopharynx cancer derived KB cells (i.e., sensitive cells) and their multi-drug resistant clone KB/VJ 300 cells (i.e., resistant cells) were used as the test cells. As the incubation solutions, use was made of 10% fetal calf serum (Flow Laboratories) and Eagle MEM medium (Nissui Seiyaku) containing 0.292 mg/ml of L-glutamine (Flow Laboratories). The tests of the action for overcoming resistance to anti-cancer drugs or action for increasing the effect of the anti-cancer drug with the combined administration of the anti-cancer drug doxorubicin (i.e., adriamycin, ADM) and the test compound were performed as follows:
The test cells were suspended in incubation solutions and adjusted to a cell density of about 200 cells/ml. The cell suspensions were injected in 2 ml amounts into petri dishes and were incubated in a CO2 gas incubator (5% CO2, 95% air) at 37° C. for 24 hours. Then, 5-10 μl of a predetermined concentration of the aqueous ADM solution and a predetermined concentration of a DMSO solution of the test compound were added, then the incubation was continued for a further 6 days. After the end of the incubation, the result was immobilized with methanol, Tripan blue stained and measured for the number of colonies per dish. […]

[2] = system: KB/VJ 300 cells; test: Degree of resistance to VCR in multi-drug resistant VJ-300 cells on combined administration of vincristine and test compound; assay type: cell-based, human; settings: relative to KB = 1
Protocol: as §1, with “action for increasing the effect of the anti-cancer drug with the combined administration of the anti-cancer drug doxorubicin (i.e., adriamycin, ADM) and the test compound were performed as follows:” left out
The test cells were suspended in incubation solutions and adjusted to a cell density of about 200 cells/ml. The cell suspensions were injected in 2 ml amounts into petri dishes and were incubated in a CO2 gas incubator (5% CO2, 95% air) at 37° C. for 24 hours. […] After the end of the incubation, the result was immobilized with methanol, Tripan blue stained and measured for the number of colonies per dish. The results were used to prepare a volume-reaction curve. From this, the ADM concentration of the 50% cell survival rate (LD50 ) was calculated and the effect for overcoming resistance to anti-cancer drugs and the effect for increasing the effect of anti-cancer drugs were judged. The results are shown in Table 12 to Table 14 using the concentration of LD50 of ADM in the ADM alone group when KB cells were used as the resistance degree 1 and calculating the resistances of the following LD50 concentrations as relative ratios. […]

[3] = system: thoracic aorta of the rat; test: Action easing KCl contraction in rat arteries; settings: rat thoracic aorta ring, 50 mM KCl, compound 10^-6 M; read-out: Inhibitory rate of hyperpotassium contraction at 10^-6 M
Protocol: Action Easing KCl Contraction in Rat Arteries
The specimen was stabilized for approximately 60 minutes, then a potassium chloride solution was added to the Magnus tube to give a final concentration of 50 mM. The positive control compound or the compound of the present invention was cumulatively added to become 1×10^-6 M when the contraction reaction occurring at that time reached equilibrium. The contraction force was recorded by an FD-pickup (Nihon Koden) via a polygraph (Nihon Koden).

[4] = system: multidrug resistance; settings: literature statement in words; cited from earlier work

6-Methyl-2-[4-(2-methylimidazo[4,5-b]pyridin-1-yl)phenyl]-4-(2-phenylethyl)-1,4-dihydropyridin-3,5-dicarboxylate 3-ethylester 5-[3-(3-pyridyl)-2-propynyl]ester [Compound 51]
Degree of resistance for ADM, VJ-300 [1]: 1.43

CC[C@]1(O)C[C@H]2CN(CCc3c([nH]c4ccccc34)[C@@](C(=O)OC)(c3cc4c(cc3OC)N(C=O)[C@H]3[C@@](O)(C(=O)OC)[C@H](OC(C)=O)[C@]5(CC)C=CCN6CC[C@]43[C@@H]65)C2)C1 [VCR, vincristine]
Degree of resistance for VCR, VJ-300 (VCR alone, control) [2]: 903-970

COC(=O)C1=C(C)NC(C)=C(C(=O)OCCN(C)Cc2ccccc2)C1c1cccc([N+](=O)[O-])c1 (centres unmarked) [nicardipine, reference compound]
inhibition at 1 µM [3]: 100%
effect of combined administration with an anti-cancer drug on multidrug resistance [4]: effective

6-Methyl-2-[4-(2-methylimidazo[4,5-b]pyridin-1-yl)phenyl]-4-pentyl-1,4-dihydropyridin-3,5-dicarboxylate 3-ethylester 5-[3-(3-pyridyl)2-propynyl]ester [Compound 52]
Degree of resistance for ADM, VJ-300 [1]: 1.60

Reference: patent US6306853A, “1,4-Dihydropyridine derivatives” (Nikken Chemicals Co., Ltd., priority 1998, dated 2001)
